Laboratory results as given in patent publication US12018011B2, “Macrocyclic compounds and compositions, and methods of preparing and using the same” (Kura Oncology, Inc., priority 2021, dated 2024).

Molecular target: T1, Recombinant human farnesyl transferase (FTase) (Homo sapiens, UniProt P49356)
T1 construct: purchased Crelux (Martinsried, Germany)
Experiment: FTase fluorescence assay (farnesylation of dansyl-GCVLS peptide)
Assay type: biochemical
Details: recombinant human FTase 2.5 nM, Dansyl-GCVLS 85 nM, FPP 30 nM, 30° C., 50 minutes
From the text: T24/83 cell line was purchased from the European Collection of Authenticated Cell Cultures (Salisbury, UK). Recombinant human farnesyl transferase (FTase) and geranylgeranyl transferase type-1 (GGTase) were obtained from Crelux (Martinsried, Germany). Dansyl labelled GCVLS peptide was purchased from Bachem (Torrance, CA), and Dansyl labelled GCVLL peptide was purchased from Bio Synthesis (Lewisville, TX). Farnesyl Pyrophosphate (FPP) and Geranylgeranyl pyrophosphate (GGPP) were purchased from Cayman (Ann Arbor, MI).
Specific biochemical activity of the compounds disclosed herein as FTase inhibitors was determined by measuring the ability of the compounds to block the farnesylation by recombinant FTase of fluorescent (i.e., dansyl-labeled) test substrates derived from the CAAX box of farnesylated proteins, such as the peptide GCVLS.
The IC50 value of the compounds disclosed herein as inhibitors of Ftase and/or GGTase, was determined by measuring the concentration (provided in nM) necessary to achieve inhibition of enzyme activity by 50% (IC50). […] Compounds having a low IC50 value against FTase, for example an IC50 (FTase)<100 nM, such as an IC50 (FTase)<10 nM, are preferred. Compounds having a low IC50 value against FTase and a high IC50 value against GGTase, for example an IC50 (FTase)<100 nM, such as an IC50 (FTase)<10 nM, and an IC50 (GGTase)>100 nM, are potent and selective inhibitors of FTase, and are particularly preferred.
The inhibition activities of the compounds disclosed herein against Ftase and GGTase were measured in the respective fluorescence assays as follows:
For the FTase assay, recombinant human FTase (2.5 nM), Dansyl labelled GCVLS peptide (85 nM), FPP (30 nM) and inhibitor were mixed in assay buffer (50 mM Tris, pH 7.5, 10 mM magnesium chloride, 10 μM zinc chloride, 0.08% CHAPS, 5 mM dithiothreitol) and incubated in a total volume of 20 μL at 30° C. for 50 minutes.
For both the FTase assay and GGTase assay, fluorescence intensity was detected (excitation at 340 nm and emission at 486 nm) using EnVision (PerkinElmer; Waltham, MA), IC50 determinations were performed using a sigmoidal dose-response model with Xlfit software (IDBS, Inc.; Boston, MA), and tipifarnib was used as a positive control. All the assay plates for each assay passed the QC criteria (S/B, Z factor).

Row | IC50 [nM] | SMILES
1 | > 100 | [2H]C([2H])([2H])n1c(=O)cc2c3cc(ccc31)[C@](N)(c1cncn1C)c1ccc(C#N)c(c1)COc1cccc-2c1 (racemic) [(R)-56, (R)-3-amino-2^1-(methyl-d3)-3-(1-methyl-1H-imidazol-5-yl)-2^2-oxo-2^1,2^2-dihydro-6-oxa-2(4,6)-quinolina-1,4(1,3)-dibenzenacyclohexaphane-4^4-carbonitrile]
2 | > 100 | Cn1cncc1[C@]1(N)c2ccc(C#N)c(c2)CCc2cccc(c2)-c2cc(=O)n(C)c3ccc1cc23 (racemic) [(S)-7, (S)-3-amino-2^1-methyl-3-(1-methyl-1H-imidazol-5-yl)-22-oxo-2^1,2^2-dihydro-2(4,6)-quinolina-1,4(1,3)-dibenzenacyclohexaphane-4^4-carbonitrile]
3 | 10 to 100 | [2H]C([2H])([2H])n1c(=O)cc2c3cc(ccc31)[C@@H](n1cnc(C)c1)c1ccc(Cl)c(c1)COc1cccc-2c1 [(R)-77, (R)-4^4-chloro-2^1-(methyl-d3)-3-(4-methyl-1H-imidazol-1-yl)-2^1,2^2-dihydro-6-oxa-2(4,6)-quinolina-1,4(1,3)-dibenzenacyclohexaphan-2^2-one]
4 | 10 to 100 | [2H]C([2H])([2H])n1c(=O)cc2c3cc(ccc31)[C@@H](n1ncnc1C)c1ccc(Cl)c(c1)COc1cccc-2c1 [(R)-079, (R)-4^4-chloro-2^1-(methyl-d3)-3-(5-methyl-1H-1,2,4-triazol-1-yl)-2^1,2^2-dihydro-6-oxa-2(4,6)-quinolina-1,4(1,3)-dibenzenacyclohexaphan-2^2-one]
5 | 10 to 100 | [2H]C([2H])([2H])n1c(=O)cc2c3cc(ccc31)[C@@H](n1cnc(C)n1)c1ccc(Cl)c(c1)COc1cccc-2c1 [(R)-080, (R)-4^4-chloro-2^1-(methyl-d3)-3-(3-methyl-1H-1,2,4-triazol-1-yl)-2^1,2^2-dihydro-6-oxa-2(4,6)-quinolina-1,4(1,3)-dibenzenacyclohexaphan-2^2-one]
6 | 10 to 100 | Cn1cncc1[C@]1(N)c2ccc(C#N)c(c2)COc2cccc(c2)-c2cc(OC3COC3)nc3ccc1cc23 [(R)-89, (R)-3-amino-3-(1-methyl-1H-imidazol-5-yl)-2^2-(oxetan-3-yloxy)-6-oxa-2(4,6)-quinolina-1,4(1,3)-dibenzenacyclohexaphane-4^4-carbonitrile]
7 | ≤ 10 | [2H]C([2H])([2H])n1cncc1[C@@]1(N)c2ccc(C#N)c(c2)COc2cccc(c2)-c2cc(C#N)nc3ccc1cc23 [(S)-70, (S)-3-amino-3-(1-(methyl-d3)-1H-imidazol-5-yl)-6-oxa-2(4,6)-quinolina-1,4(1,3)-dibenzenacyclohexaphane-2^2 4^4-dicarbonitrile]
8 | 10 to 100 | [2H]C([2H])([2H])n1c(=O)cc2c3cc(ccc31)[C@H](n1cncc1C)c1ccc(Cl)c(c1)COc1cccc-2c1 [(S)-76, (S)-4^4-chloro-2^1-(methyl-d3)-3-(5-methyl-1H-imidazol-1-yl)-2^1,2^2-dihydro-6-oxa-2(4,6)-quinolina-1,4(1,3)-dibenzenacyclohexaphan-2^2-one]
9 | 10 to 100 | [2H]C([2H])([2H])n1c(=O)cc2c3cc(ccc31)[C@H](n1cnc(C)c1)c1ccc(Cl)c(c1)COc1cccc-2c1 [(S)-77, (S)-4^4-chloro-2^1-(methyl-d3)-3-(4-methyl-1H-imidazol-1-yl)-2^1,2^2-dihydro-6-oxa-2(4,6)-quinolina-1,4(1,3)-dibenzenacyclohexaphan-2^2-one]

Further lines, the molecule ahead of its results:

Row | SMILES | IC50 [nM]
10 | Cn1cncc1[C@]1(N)c2ccc(C#N)c(c2)COc2cccc(c2)-c2cc(=O)n(C3CC3)c3ccc1cc23 (racemic) [(R)-57, (R)-3-amino-21-cyclopropyl-3-(1-methyl-1H-imidazol-5-yl)-2^2-oxo-2^1,2^2-dihydro-6-oxa-2(4,6)-quinolina-1,4(1,3)-dibenzenacyclohexaphane-4^4-carbonitrile] | > 100
11 | Cn1cncc1[C@]1(N)c2ccc(C#N)c(c2)COc2cccc(c2)-c2cc(C#N)nc3ccc1cc23 (racemic) [(R)-58, (R)-3-amino-3-(1-methyl-1H-imidazol-5-yl)-6-oxa-2(4,6)-quinolina-1,4(1,3)-dibenzenacyclohexaphane-2^2,4^4-dicarbonitrile] | 10 to 100
12 | Cn1cncc1[C@]1(N)c2ccc(C#N)c(c2)COc2cccc(c2)-c2cc(N3CCOCC3)nc3ccc1cc23 (racemic) [(R)-66, (R)-3-amino-3-(1-methyl-1H-imidazol-5-yl)-2^2-morpholino-6-oxa-2(4,6)-quinolina-1,4(1,3)-dibenzenacyclohexaphane-4^4-carbonitrile] | ≤ 10
13 | [2H]C([2H])([2H])n1cncc1[C@]1(N)c2ccc(C#N)c(c2)COc2cccc(c2)-c2cc(C#N)nc3ccc1cc23 (racemic) [(R)-70, (R)-3-amino-3-(1-(methyl-d3)-1H-imidazol-5-yl)-6-oxa-2(4,6)-quinolina-1,4(1,3)-dibenzenacyclohexaphane-2^2,4^4-dicarbonitrile] | 10 to 100
14 | Cn1cncc1[C@]1(O)c2ccc(C#N)c(c2)CCc2cccc(c2)-c2cc(=O)n(C)c3ccc1cc23 (racemic) [(S)-6, (S)-3-hydroxy-2^1-methyl-3-(1-methyl-1H-imidazol-5-yl)-2^2-oxo-2^1,2^2-dihydro-2(4,6)-quinolina-1,4(1,3)-dibenzenacyclohexaphane-4^4-carbonitrile] | > 100
15 | [2H]C([2H])([2H])n1c(=O)cc2c3cc(ccc31)[C@](N)(c1cncn1C)c1ccc(C#N)c(c1)CCc1cccc-2c1 (racemic) [(S)-8, (S)-3-amino-2^1-(methyl-d3)-3-(1-methyl-1H-imidazol-5-yl)-22-oxo-2^1,2^2-dihydro-2(4,6)-quinolina-1,4(1,3)-dibenzenacyclohexaphane-4^4-carbonitrile] | > 100
16 | Cn1cncc1[C@]1(N)c2ccc(C#N)c(c2)CCc2cccc(c2)-c2cc(C#N)nc3ccc1cc23 (racemic) [(S)-9, (S)-3-amino-3-(1-methyl-1H-imidazol-5-yl)-2(4,6)-quinolina-1,4(1,3)-dibenzenacyclohexaphane-2^2,4^4-dicarbonitrile] | > 100
17 | [2H]C([2H])([2H])n1c(=O)cc2c3cc(ccc31)[C@@H](n1cncc1C)c1ccc(Cl)c(c1)COc1cccc-2c1 [(R)-76, (R)-4^4-chloro-2^1-(methyl-d3)-3-(5-methyl-1H-imidazol-1-yl)-2^1,2^2-dihydro-6-oxa-2(4,6)-quinolina-1,4(1,3)-dibenzenacyclohexaphan-2^2-one] | 10 to 100
18 | [2H]C([2H])([2H])n1cncc1[C@]1(O)c2ccc(C#N)c(c2)COc2cccc(c2)-c2cc(C#N)nc3ccc1cc23 [(R)-078, (R)-3-hydroxy-3-(1-(methyl-d3)-1H-imidazol-5-yl)-6-oxa-2(4,6)-quinolina-1,4(1,3)-dibenzenacyclohexaphane-2^2 4^4-dicarbonitrile] | 10 to 100
19 | Cn1cncc1[C@]1(N)c2ccc(C#N)c(c2)COc2cccc(c2)-c2nccc3ccc1cc23 [(R)-86, (R)-3-amino-3-(1-methyl-1H-imidazol-5-yl)-6-oxa-2(1,7)-isoquinolina-1,4(1,3)-dibenzenacyclohexaphane-4^4-carbonitrile] | > 100
20 | Cc1cn([C@H]2c3ccc(C#N)c(c3)COc3cccc(c3)-c3cc(C#N)nc4ccc2cc34)cn1 [(R)-90, (R)-3-(4-methyl-1H-imidazol-1-yl)-6-oxa-2(4,6)-quinolina-1,4(1,3)-dibenzenacyclohexaphane-2^2,4^4-dicarbonitrile] | 10 to 100
21 | Cn1cncc1[C@@]1(N)c2ccc(C#N)c(c2)COc2cccc(c2)-c2cc(N3CCOCC3)nc3ccc1cc23 [(S)-66, (S)-3-amino-3-(1-methyl-1H-imidazol-5-yl)-2^2-morpholino-6-oxa-2(4,6)-quinolina-1,4(1,3)-dibenzenacyclohexaphane-4^4-carbonitrile] | ≤ 10
22 | [2H]C([2H])([2H])n1cncc1[C@@]1(O)c2ccc(C#N)c(c2)COc2cccc(c2)-c2cc(C#N)nc3ccc1cc23 [(S)-078, (S)-3-hydroxy-3-(1-(methyl-d3)-1H-imidazol-5-yl)-6-oxa-2(4,6)-quinolina-1,4(1,3)-dibenzenacyclohexaphane-2^2 4^4-dicarbonitrile] | ≤ 10
23 | [2H]C([2H])([2H])n1c(=O)cc2c3cc(ccc31)[C@H](n1ncnc1C)c1ccc(Cl)c(c1)COc1cccc-2c1 [(S)-079, (S)-4^4-chloro-2^1-(methyl-d3)-3-(5-methyl-1H-1,2,4-triazol-1-yl)-2^1,2^2-dihydro-6-oxa-2(4,6)-quinolina-1,4(1,3)-dibenzenacyclohexaphan-2^2-one] | > 100
